# Data reported in article PMC9851200, “Multiparameter phenotypic screening for endogenous TFEB and TFE3 translocation identifies novel chemical series modulating lysosome function” (Autophagy, 2022).
# Tests used:
# Assay type in all cases: binding
# [1] = biological target: kinases (KINOMEscan panel) (Homo sapiens, UniProt P31751); conditions: NEW KINOMEscan
# [2] = biological target: T1, kinases (KINOMEscan panel) (Homo sapiens, UniProt Q13546); conditions: kinase RIPK1; NEW KINOMEscan
# T1 sequence (Q13546 1-671): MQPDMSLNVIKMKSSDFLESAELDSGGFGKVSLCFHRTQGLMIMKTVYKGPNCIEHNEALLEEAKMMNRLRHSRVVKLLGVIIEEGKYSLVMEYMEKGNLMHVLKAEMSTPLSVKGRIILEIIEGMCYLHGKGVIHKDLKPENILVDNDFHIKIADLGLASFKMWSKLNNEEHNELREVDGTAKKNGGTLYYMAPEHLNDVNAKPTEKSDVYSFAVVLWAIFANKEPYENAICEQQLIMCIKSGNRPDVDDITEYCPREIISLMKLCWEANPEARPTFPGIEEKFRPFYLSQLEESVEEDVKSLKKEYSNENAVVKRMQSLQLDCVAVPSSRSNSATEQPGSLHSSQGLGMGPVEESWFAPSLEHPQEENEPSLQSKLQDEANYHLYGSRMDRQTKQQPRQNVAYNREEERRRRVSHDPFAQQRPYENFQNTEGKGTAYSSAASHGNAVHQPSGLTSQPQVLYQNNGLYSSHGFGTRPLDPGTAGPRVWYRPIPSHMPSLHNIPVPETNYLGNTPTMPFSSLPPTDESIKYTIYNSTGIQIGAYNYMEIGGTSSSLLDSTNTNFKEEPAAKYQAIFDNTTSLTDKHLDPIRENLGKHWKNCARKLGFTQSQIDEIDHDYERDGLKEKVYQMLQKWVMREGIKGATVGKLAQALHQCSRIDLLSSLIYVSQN
# [3] = biological target: T2, kinases (KINOMEscan panel) (Homo sapiens, UniProt Q9UF33); conditions: kinase EPHA6; NEW KINOMEscan
# T2 sequence (Q9UF33 23-1036): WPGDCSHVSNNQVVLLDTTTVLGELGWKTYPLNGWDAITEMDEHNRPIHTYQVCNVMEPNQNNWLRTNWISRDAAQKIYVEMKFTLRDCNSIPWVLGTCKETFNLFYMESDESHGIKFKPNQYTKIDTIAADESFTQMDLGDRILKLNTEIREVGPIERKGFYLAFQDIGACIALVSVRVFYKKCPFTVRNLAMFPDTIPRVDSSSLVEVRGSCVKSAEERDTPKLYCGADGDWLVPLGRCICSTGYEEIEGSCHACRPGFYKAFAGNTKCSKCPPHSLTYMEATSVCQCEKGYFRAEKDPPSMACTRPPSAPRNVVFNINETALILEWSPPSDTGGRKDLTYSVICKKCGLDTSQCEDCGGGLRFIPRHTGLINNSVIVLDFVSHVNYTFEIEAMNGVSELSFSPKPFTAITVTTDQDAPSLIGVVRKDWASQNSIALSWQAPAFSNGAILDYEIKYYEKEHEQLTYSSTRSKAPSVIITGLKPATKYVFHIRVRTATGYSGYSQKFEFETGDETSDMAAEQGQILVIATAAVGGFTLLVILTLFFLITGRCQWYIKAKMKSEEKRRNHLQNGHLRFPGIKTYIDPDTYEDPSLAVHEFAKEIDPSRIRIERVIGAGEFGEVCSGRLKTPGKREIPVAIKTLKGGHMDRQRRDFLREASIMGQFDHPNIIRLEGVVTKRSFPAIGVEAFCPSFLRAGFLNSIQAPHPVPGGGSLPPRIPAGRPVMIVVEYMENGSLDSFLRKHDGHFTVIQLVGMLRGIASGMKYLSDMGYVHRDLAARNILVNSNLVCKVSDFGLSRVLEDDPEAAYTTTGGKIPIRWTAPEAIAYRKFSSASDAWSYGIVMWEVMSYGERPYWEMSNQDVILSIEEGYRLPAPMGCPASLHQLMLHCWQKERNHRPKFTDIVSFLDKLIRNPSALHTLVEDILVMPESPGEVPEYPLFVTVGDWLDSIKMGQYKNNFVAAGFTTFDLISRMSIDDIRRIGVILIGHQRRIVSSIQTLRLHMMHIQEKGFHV
# [4] = biological target: T3, kinases (KINOMEscan panel) (Homo sapiens, UniProt Q96L34); conditions: kinase MARK4; NEW KINOMEscan
# T3 sequence (Q96L34 1-752): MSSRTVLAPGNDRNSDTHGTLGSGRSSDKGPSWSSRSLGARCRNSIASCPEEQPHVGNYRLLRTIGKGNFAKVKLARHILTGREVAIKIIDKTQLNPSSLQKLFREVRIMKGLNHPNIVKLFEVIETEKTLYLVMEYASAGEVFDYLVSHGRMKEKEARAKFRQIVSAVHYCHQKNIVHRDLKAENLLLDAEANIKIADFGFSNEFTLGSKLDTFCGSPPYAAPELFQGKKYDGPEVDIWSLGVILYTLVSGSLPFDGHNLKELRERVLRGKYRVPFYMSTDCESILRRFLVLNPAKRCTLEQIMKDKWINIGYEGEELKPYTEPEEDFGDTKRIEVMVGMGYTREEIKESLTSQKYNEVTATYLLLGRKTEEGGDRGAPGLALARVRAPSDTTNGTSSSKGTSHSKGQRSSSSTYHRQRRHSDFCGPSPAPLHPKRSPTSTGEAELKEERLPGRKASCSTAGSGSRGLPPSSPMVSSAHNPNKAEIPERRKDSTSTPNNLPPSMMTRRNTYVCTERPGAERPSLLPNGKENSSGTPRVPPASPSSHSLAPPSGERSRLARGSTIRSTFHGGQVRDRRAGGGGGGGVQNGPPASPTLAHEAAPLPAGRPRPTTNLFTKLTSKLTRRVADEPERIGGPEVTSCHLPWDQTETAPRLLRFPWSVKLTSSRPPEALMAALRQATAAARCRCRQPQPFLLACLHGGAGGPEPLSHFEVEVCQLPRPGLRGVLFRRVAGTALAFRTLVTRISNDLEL
# [5] = biological target: T4, kinases (KINOMEscan panel) (Homo sapiens, UniProt Q9UQB9); conditions: AURKC; NEW KINOMEscan
# T4 sequence (Q9UQB9 1-309): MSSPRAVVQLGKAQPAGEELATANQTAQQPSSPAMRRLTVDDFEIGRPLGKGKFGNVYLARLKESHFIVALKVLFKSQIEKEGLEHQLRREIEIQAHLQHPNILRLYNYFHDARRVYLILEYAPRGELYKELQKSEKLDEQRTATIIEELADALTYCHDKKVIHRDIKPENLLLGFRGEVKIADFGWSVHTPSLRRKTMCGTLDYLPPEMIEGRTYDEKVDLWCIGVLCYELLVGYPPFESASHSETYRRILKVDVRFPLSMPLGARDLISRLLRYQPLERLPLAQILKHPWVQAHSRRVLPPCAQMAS
# [6] = biological target: kinases (KINOMEscan panel) (Homo sapiens, UniProt Q8IVW4); conditions: kinase CDKL3; NEW KINOMEscan
# Sequence of kinases (KINOMEscan panel) (Homo sapiens, UniProt Q8IVW4) (Q8IVW4 whole entry): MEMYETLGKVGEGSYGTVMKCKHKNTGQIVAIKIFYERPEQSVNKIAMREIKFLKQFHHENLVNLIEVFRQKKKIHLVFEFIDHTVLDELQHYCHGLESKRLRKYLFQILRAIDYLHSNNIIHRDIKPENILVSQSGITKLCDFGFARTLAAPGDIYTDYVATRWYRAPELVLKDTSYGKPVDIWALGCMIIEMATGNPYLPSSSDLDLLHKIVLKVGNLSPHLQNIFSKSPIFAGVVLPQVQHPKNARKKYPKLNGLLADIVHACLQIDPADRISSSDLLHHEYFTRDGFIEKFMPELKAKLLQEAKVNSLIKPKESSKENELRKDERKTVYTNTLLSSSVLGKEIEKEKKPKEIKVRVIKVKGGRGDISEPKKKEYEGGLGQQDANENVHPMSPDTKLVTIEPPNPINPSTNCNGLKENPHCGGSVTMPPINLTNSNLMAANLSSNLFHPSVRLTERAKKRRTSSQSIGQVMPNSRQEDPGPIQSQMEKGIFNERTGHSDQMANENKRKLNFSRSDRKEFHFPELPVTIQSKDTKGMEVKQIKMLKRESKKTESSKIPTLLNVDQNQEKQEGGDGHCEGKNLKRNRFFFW
# Sequence of kinases (KINOMEscan panel) (Homo sapiens, UniProt P31751) (P31751 whole entry): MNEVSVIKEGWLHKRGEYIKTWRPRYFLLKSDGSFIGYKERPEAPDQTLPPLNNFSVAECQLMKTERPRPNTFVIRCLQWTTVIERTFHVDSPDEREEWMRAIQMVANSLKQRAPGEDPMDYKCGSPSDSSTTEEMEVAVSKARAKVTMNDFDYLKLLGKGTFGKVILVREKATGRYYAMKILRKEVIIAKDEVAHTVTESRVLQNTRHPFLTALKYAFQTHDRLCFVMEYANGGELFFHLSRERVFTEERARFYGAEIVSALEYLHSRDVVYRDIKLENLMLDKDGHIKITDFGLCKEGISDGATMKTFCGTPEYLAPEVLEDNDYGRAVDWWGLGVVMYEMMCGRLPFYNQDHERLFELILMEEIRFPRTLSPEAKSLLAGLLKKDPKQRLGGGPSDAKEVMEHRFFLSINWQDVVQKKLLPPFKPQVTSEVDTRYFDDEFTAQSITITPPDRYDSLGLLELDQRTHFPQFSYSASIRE
Structure (SMILES),KINOMEscan AKT2 [1],KINOMEscan RIPK1 [2],KINOMEscan EPHA6 [3],KINOMEscan MARK4 [4],KINOMEscan AURKC [5],KINOMEscan CDKL3 [6]
Cc1cccc(-c2nc(Nc3ccc4nn(C)cc4c3)c3ccccc3n2)n1 [NK167],28,2,0,34,0,12
Cc1cccc(-c2nc(N(C)c3ccc4ncsc4c3)c3ccccc3n2)n1 [NK-161],19,0,5,16,0,0
